Columns and labels:
[1] = system: HMC3 human microglia cells; assay: MSD U-PLEX cytokine secretion induced by TNF-α; assay type: cell-based; parameters: increase in IL-1β secretion compared to untreated HMC3 cells / increase in IL-6 secretion compared to untreated HMC3 cells / increase in IL-8 secretion compared to untreated HMC3 cells / IFN-γ secretion: dose or concentration left out as unconfirmed; settings: for inhibition at 3 µM: Homo sapiens, HMC3
Protocol: (§1) Human microglial cell line HMC3 (CRL-3304) was purchased from ATCC (American Type Culture Collection). HMC3 cell line was cultured in DMEM medium with 10% FBS, 1% L-glutamine, and 1% penicillin/streptomycin. Cells were maintained in 37° C. incubator at 5% CO2.
(§2) HMC3 cells were resuspended, counted using the LUNA-II Automated Cell Counter, seeded in the 6-well plate (400 K cells/2 mL medium/well), and incubated overnight to allow cells to attach. The media and detached cells were removed next day. The cell layer was washed three times in PBS and once in serum- and phenolred-free DMEM (SPFM). […] The conditioned medium was collected and centrifuged at 1,000×RCF (g) for 5 min to pellet detached cells and large debris, which was subsequently passed through a 0.22 μm filter with PVDF membrane to remove smaller debris. Samples of the supernatant medium were put in a CoolRack (#07210041, Fisher Scientific) on dry ice for Snap-freezing and kept at −80° C. until use.
(§3) Meso-scale U-PLEX plates that detect a cytokine panel including IL-1β, IL-2, IL-4, IL-6, IL-8, IL-10, IFN-γ, TNF-α, and a chemokine panel including IP-10/CXCL10, MCP-1/CCL2, MIP-1α/CCL3, MIP-1P/CCL4, Eotaxin/CCL11, were used as per manufacture's protocol. 25 μL of the conditioned medium was used in each well of the MSD plates to detect the analytes. The plates were then analyzed on an MSD QuickPlex SQ120 instrument.
(§4) All the data were presented as mean±standard error from at least three times, each done in triplicate. The statistical significance between two groups was determined by Student's t test, whereas the comparisons of multiple groups were carried out by one-way ANOVA, followed by Bonferroni's post-test using GraphPad Prism 7 (GraphPad Software, Inc.). A probability value of * p<0.05 was considered to be significant.

[2] = system: HMC3 human microglia cells; assay: MSD U-PLEX chemokine secretion induced by TNF-α; assay type: cell-based; settings: 0.3 μg/mL TNF-α, 24 hours; for inhibition at 3 µM: Homo sapiens, HMC3
Protocol: as §1, §2, §3, §4

[3] = system: HMC3 human microglia cells; assay: Cell viability assay by AO/PI stain; assay type: cell-based; settings: for microglia death: 300 ng/mL, 24 hr
Protocol: as §1
(§5) HMC3 cells were resuspended, counted using the LUNA-II Automated Cell Counter, seeded in the 6-well plate (300 K cells/2 mL medium/well), and incubated overnight to allow cells to attach. Cells were treated with TNF-α or IFN-γ at five different concentrations (0, 10, 30, 100, 300 ng/mL) for 24 hr to induce cell activation. The supernatant medium was completely aspirated and 1 mL of fresh DMEM was added to wash the cell layer to remove detached cells and debris. The attached cells were resuspended and washed with PBS. Cells were washed with FACS buffer (2% FBS in PBS) prior to incubation with Zombie Violet Fixable Viability Dye (#423114, Biolegend, 1:500 dilution) and Human Fe Receptor Blocking Solution (#422302, Biolegend, 1:20) diluted in FACS buffer at RT for 10 min in the dark. Cells were then washed with FACS buffer and incubated at RT for 20 min with the following cell-surface antibodies: FITC anti-MHC II (#361706, Biolegend), PerCP/Cy5.5 anti-CD11b (#301328, Biolegend), BV605 anti-CD40 (#334336, Biolegend), PE anti-CD86 (#374206, Biolegend), PE/Cy7 anti-CD163 (#326514, Biolegend), APC anti-CD206 (#321110, Biolegend), and PerCP/Cy5.5 anti-CD14 (#367110, Biolegend). All of the cell-surface antibodies were diluted 1:20 in FACS buffer. Cells were permeabilized using the Transcription Factor Fixation/Permeabilization Buffer Set (#424401, Biolegend). Then cells were incubated with the following intracellular antibodies: APC/Cy7 anti-CD68 (#333822, Biolegend), purified anti-IBA1 (#PA5-27436, Invitrogen), Goat anti-Rabbit-Alexa Fluor 647 (#A21245, Invitrogen), purified anti-GFAP (#644702, Biolegend), and Goat anti-Mouse-Alexa Fluor 488 (#11029, Invitrogen). All of the intracellular antibodies were diluted 1:100 in the Permeabilization buffer (lx). Cells were washed with Permeabilization buffer and fixed in Fixation Buffer (#420801, Biolegend). Flow cytometry was performed using the Attune NxT Acoustic Focusing Cytometer (Thermo Fisher Scientific). Analysis of flow cytometry data was performed via FCS Express 7 (DeNovo Software).
Cell viability was assessed with a LUNA-FL Automated fluorescence cell counter. Viable nucleated cells show green fluorescence and dying nucleated cells show red fluorescence. 18 µL of sample was mixed with 2 μL Acridine Orange/Propidium Iodide (AO/PI) Stain.
as §4

[4] = system: HMC3 human microglia cells; assay: Flow cytometry of microglia activation biomarkers; assay type: cell-based; settings: 300 ng/mL, 24 hr
Protocol: as §1
as §5, with “Cells were washed with Permeabilization buffer and fixed in Fixation Buffer (#420801, Biolegend). Flow cytometry was performed using the Attune NxT Acoustic Focusing Cytometer (Thermo Fisher Scientific). Analysis of flow cytometry data was performed via FCS Express 7 (DeNovo Software).” left out

H5N1 virus = settings: after H5N1 virus infection; cited from earlier work

Compound: O=C(O)c1cc(=O)c2c(OCC(F)COc3cccc4oc(C(=O)O)cc(=O)c34)cccc2o1 [F-cromolyn]
- IFN-γ concentration ([1]; 0.3 μM, TNF-α induced, 24 hr): decreased
- IL-1β concentration ([1]; 0.3 μM, TNF-α induced, 24 hr): decreased
- IL-6 concentration ([1]; 0.3 μM, TNF-α induced, 24 hr): decreased
- IL-8 concentration ([1]; 0.3 μM, TNF-α induced, 24 hr): decreased
- inhibition at 3 µM ([1]; TNF-α induced, 24 hr, read-out: inhibition of IFN-γ): > 50%
- inhibition at 3 µM ([1]; TNF-α induced, 24 hr, read-out: inhibition of IL-1β): > 50%
- inhibition at 3 µM ([1]; TNF-α induced, 24 hr, read-out: inhibition of IL-6): 39.8%
- inhibition at 3 µM ([1]; TNF-α induced, 24 hr, read-out: inhibition of IL-8): 27.9%
- extracellular IP-10 (CXCL10) ([2]; 0.3 μM): can inhibit
- extracellular MCP-1 (CCL2) ([2]; 0.3 μM): can inhibit
- extracellular MIP-1α (CCL3) ([2]; 0.3 μM): can inhibit
- extracellular MIP-1β (CCL4) ([2]; 0.3 μM): can inhibit
- inhibition at 3 µM ([2]; read-out: inhibition of IP-10 (CXCL10)): > 40%
- inhibition at 3 µM ([2]; read-out: inhibition of MCP-1 (CCL2)): > 40%
- inhibition at 3 µM ([2]; read-out: inhibition of MIP-1α (CCL3)): 36%
- inhibition at 3 µM ([2]; read-out: inhibition of MIP-1β (CCL4)): > 40%
- TNF-α induced cell death ([3]; 0.3 μM, TNF-α 0.3 μg/mL): significantly reduced cell death

Compound: TNF-α
- IFN-γ secretion ([1]; 24 hours): caused the previously quiescent cells to secrete IFN-γ
- increase in IL-1β secretion compared to untreated HMC3 cells ([1]; 24 hours): > 177 fold
- increase in IL-6 secretion compared to untreated HMC3 cells ([1]; 24 hours): > 177 fold
- increase in IL-8 secretion compared to untreated HMC3 cells ([1]; 24 hours): > 177 fold
- microglia death [3]: 15.6%
- cell death, share of the total population ([3]; TNF-α 0.3 μg/mL): approximately 20%
- expression of inflammatory microglia biomarkers [4]: increases the expression

Compound: CN1CCC(=C2c3ccccc3CC(=O)c3sccc32)CC1 [ketotifen]
- lung injury (H5N1 virus): improved

Compound: IFN-γ: recombinant human IFN-γ, used to activate HMC3 microglia
- microglia death [3]: 19.7%
- expression of anti-inflammatory microglia biomarkers (CD163 and CD206) [4]: no alteration
- expression of inflammatory microglia biomarkers [4]: increased protein expression
